# Measured values published in publication PMC4848495, “Identification of a Potent and Broad-Spectrum Hepatitis C Virus Fusion Inhibitory Peptide from the E2 Stem Domain” (Scientific Reports, 2016).
# Residues, ends and D or L forms follow the SMILES beside them.
# Target: HCV glycoprotein E1E2-mediated membrane fusion (Hepatitis C virus genotype 1a, UniProt P27958)
# Assay: cell-based
# Assay type: cell-based, Hepatitis C virus (strain H77)
# Details: not given
# Sequence of HCV glycoprotein E1E2-mediated membrane fusion (P27958 384-746): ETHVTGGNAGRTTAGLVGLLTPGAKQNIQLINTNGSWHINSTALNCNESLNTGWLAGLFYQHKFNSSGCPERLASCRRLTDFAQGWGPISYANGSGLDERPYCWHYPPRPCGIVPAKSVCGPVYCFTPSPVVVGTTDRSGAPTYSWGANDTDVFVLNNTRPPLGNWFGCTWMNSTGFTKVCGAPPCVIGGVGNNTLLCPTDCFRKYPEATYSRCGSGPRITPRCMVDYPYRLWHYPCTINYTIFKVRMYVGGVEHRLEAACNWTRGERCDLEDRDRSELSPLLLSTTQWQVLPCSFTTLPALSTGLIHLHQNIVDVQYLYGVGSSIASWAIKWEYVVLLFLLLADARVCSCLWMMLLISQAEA
# Sequence of HCV glycoprotein E1E2-mediated membrane fusion (P27958 192-383): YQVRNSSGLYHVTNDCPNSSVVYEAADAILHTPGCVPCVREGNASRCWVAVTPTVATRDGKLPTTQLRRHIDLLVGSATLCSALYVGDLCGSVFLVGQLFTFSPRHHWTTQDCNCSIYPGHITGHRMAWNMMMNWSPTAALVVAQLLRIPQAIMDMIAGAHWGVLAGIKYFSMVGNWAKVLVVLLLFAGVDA
row,Compound,EC50
1,CC[C@H](C)[C@H](NC(=O)[C@H](C)NC(=O)[C@H](Cc1c[nH]c2ccccc12)NC(=O)[C@H](CO)NC(=O)[C@H](C)NC(=O)[C@@H](NC(=O)[C@H](CO)NC(=O)[C@H](CO)NC(=O)CNC(=O)[C@@H](NC(=O)CNC(=O)[C@H](Cc1ccc(O)cc1)NC(=O)[C@H](CC(C)C)NC(=O)[C@H](Cc1ccc(O)cc1)NC(=O)[C@H](CCC(N)=O)NC(=O)[C@@H](NC(=O)[C@H](CC(=O)O)NC(=O)[C@@H](NC(=O)[C@@H](NC(=O)[C@H](CC(N)=O)NC(=O)[C@H](CCC(N)=O)NC(=O)[C@H](Cc1c[nH]cn1)NC(=O)[C@H](CC(C)C)NC(=O)[C@H](Cc1c[nH]cn1)NC(=O)[C@@H](NC(=O)[C@H](CC(C)C)NC(=O)CNC(=O)[C@@H](NC(=O)[C@H](CO)NC(=O)[C@H](CC(C)C)NC(=O)[C@H](C)NC(=O)[C@@H]1CCCN1C(=O)[C@H](CC(C)C)NC(=O)[C@@H](N)[C@@H](C)O)[C@@H](C)O)[C@@H](C)CC)[C@@H](C)CC)C(C)C)C(C)C)C(C)C)[C@@H](C)CC)C(=O)N[C@@H](CCCCN)C(=O)O [E28] (H-TLPALSTGLIHLHQNIVDVQYLYGVGSSIASWAIK-OH; N-terminus and C-terminus assumed),> 20 µM

# Same assay, conditions: Cre/stop fusion system, peptide 1 µM, luciferase divided by solvent control (0.5% DMSO)
row,Compound,% of fusion
1,"WQVLP CSFTTLP ALS TGLIHLHQNVVDVQY [HCV-33, 30-mer of overlapping E1E2 peptide library]",9.7%
2,"YCFTP SPVVVGTTDRF GVP TYSWGENETDV [HCV-22, 30-mer of overlapping E1E2 peptide library]",79.0%
3,"SLNTGFLAALFYVHKFNSSGCPERMASCSP [HCV-17, 30-mer of overlapping E1E2 peptide library]",66.7%
4,"SP TAALVVSQLLRIP QAVVDMVAGAHWGVL [HCV-10, 30-mer of overlapping E1E2 peptide library]",78.8%
5,"IDAF AQGWGP ITYNESHSSDQRP YCWHYAP [HCV-19, 30-mer of overlapping E1E2 peptide library]",129.8%
6,"SHSSDQRP YCWHYAP RP CGI VP AAQVC GP V [HCV-20, 30-mer of overlapping E1E2 peptide library]",65.8%
7,"VTGGTM AKNTLGI TSLFSP GSSQKIQLVNT [HCV-14, 30-mer of overlapping E1E2 peptide library]",69.6%
8,"LFSP GSSQKIQLVNTNGS WHI NRTALNCND [HCV-15, 30-mer of overlapping E1E2 peptide library]",56.0%
9,"YEVRNVSGVYHVTNDCSNAS IVYEAADMIM [HCV-1, 30-mer of overlapping peptide library covering full-length E1E2 of HCV strain H77]",56.4%
10,"RCWVALTP TLAARNASVP TTTIRRHVDLLV [HCV-4, 30-mer of overlapping E1E2 peptide library]",85.2%
11,"FNSSGCPERMASCSPIDAFAQGWGPITYNE [HCV-18, 30-mer of overlapping E1E2 peptide library]",70.8%
12,"GAAALCSAMYV GDLC GSVFLVAQLF TFSP R [HCV-6, 30-mer of overlapping E1E2 peptide library]",81.5%
13,"NGS WHINR TALNCNDSLNTGFLAALFYVHK [HCV-16, 30-mer of overlapping E1E2 peptide library]",64.2%
14,"FKVRMYVGGVEHRLE AACNWTRGERCNLED [HCV-30, 30-mer of overlapping E1E2 peptide library]",99.6%
15,"QAVVDMVAGAHWGVLAGLAYYSMVGNWAKV [HCV-11, 30-mer of overlapping E1E2 peptide library]",121.6%
16,"EYVLLLFLLLADARVCACLWMMLLIAQAEA [HCV-36, 30-mer of overlapping E1E2 peptide library]",10.7%
17,"CSNASIVYEAADMIMHTP GC VP CVRENNSS [HCV-2, 30-mer of overlapping E1E2 peptide library]",80.8%
18,"LYGIGS AVVSFAIKWEYVLLLFLLLADARV [HCV-35, 30-mer of overlapping E1E2 peptide library]",40.0%

row,Compound,% of fusion
1,"P TDCF RKHP EATY TKC GS GP W LTP RCLV HY [HCV-27, 30-mer of overlapping E1E2 peptide library]",65.1%
2,"HVTGHRMAWDMMMNWSP TAALVVSQLLRIP [HCV-9, 30-mer of overlapping E1E2 peptide library]",56.9%
3,"AAC NW TR GERCN LEDRDRS E LS P LLLS TTE [HCV-31, 30-mer of overlapping E1E2 peptide library]",56.9%
4,"CGS GP WLTP RCLVHYP YRLWHYP CTVNFTI [HCV-28, 30-mer of overlapping E1E2 peptide library]",82.2%
5,"FGVP TYSWGENE TDVLLLNNTRPP QGNWFG [HCV-23, 30-mer of overlapping E1E2 peptide library]",145.0%
6,"LIVMLLF AGVDGGTYVTGGTMAKNTLGI TS [HCV-13, 30-mer of overlapping E1E2 peptide library]",60.1%
7,"CTWMNSTGF TKTC GGP P CNIGGI GNKTLTC [HCV-25, 30-mer of overlapping E1E2 peptide library]",87.4%
8,"HTP GCVP CVRENNSSRCWVALTP TLAAR NA [HCV-3, 30-mer of overlapping E1E2 peptide library]",64.3%
9,"PPCNIGGI GNKTLTCP TDCFRKHP EATYTK [HCV-26, 30-mer of overlapping E1E2 peptide library]",121.6%
10,"RP CGIVP AAQVC GP VYCFTP SPVVVGTTDR [HCV-21, 30-mer of overlapping E1E2 peptide library]",63.7%
11,"RDRS ELS P LLLS TTEW QV LP CS F TTLP ALS [HCV-32, 30-mer of overlapping E1E2 peptide library]",11 . 2%
12,"RHETVQDCNCSIYP GHVTGHRMAWDMMMNW [HCV-8, 30-mer of overlapping E1E2 peptide library]",76.9%
13,"TGLIHLHQNVVDVQYLYGI GSAVVSFAIKW [HCV-34, 30-mer of overlapping E1E2 peptide library]",24.9%
14,"AGLAYYSMVGNWAKVLIVMLLF AGVDGGTY [HCV-12, 30-mer of overlapping E1E2 peptide library]",122.8%
15,"GSVFLVAQLFTFSPRRHETVQDCNCSIYPG [HCV-7, 30-mer of overlapping E1E2 peptide library]",85.5%
16,"P YRLWHYP CTVNFTIFKVRMYVGGVEHRLE [HCV-29, 30-mer of overlapping E1E2 peptide library]",83.2%
17,"SVP TTTIRRHVDLLV GAAALC SAMYVGDLC [HCV-5, 30-mer of overlapping E1E2 peptide library]",84.7%

# System: HCVcc (Jc1-luc)
# Assay: not given
# Details: Huh7.5.1 cells, various concentration ratios, CalcuSyn
row,Compound,effect on inhibition of HCV infection in combination with E27
1,NC(=O)c1ncn([C@@H]2O[C@H](CO)[C@@H](O)[C@H]2O)n1 [Ribavirin],slightly synergistic trend
2,COc1ccc2c(O[C@@H]3C[C@H]4C(=O)N[C@]5(C(=O)NS(=O)(=O)C6CC6)C[C@H]5/C=C\CCCCN(C)C(=O)[C@@H]4C3)cc(-c3nc(C(C)C)cs3)nc2c1C [Simeprevir],slight antagonism
3,CC(C)OC(=O)[C@H](C)N[P@](=O)(OC[C@H]1O[C@@H](n2ccc(=O)[nH]c2=O)[C@](C)(F)[C@@H]1O)Oc1ccccc1 [Sofosbuvir],slight antagonism
4,CCC[C@H](NC(=O)[C@@H]1[C@H]2CCC[C@H]2CN1C(=O)[C@@H](NC(=O)[C@@H](NC(=O)c1cnccn1)C1CCCCC1)C(C)(C)C)C(=O)C(=O)NC1CC1 [Telaprevir],slightly synergistic trend
